Key:
[1] = biological target: T1, BACE1 (Homo sapiens (Human), UniProt P56817); experiment: In vitro enzymatic BACE1 FRET assay; assay type: biochemical; settings: read-out: IC50 IP (μM) BACE1 Enzyme
Target sequence in this assay (P56817 46-501): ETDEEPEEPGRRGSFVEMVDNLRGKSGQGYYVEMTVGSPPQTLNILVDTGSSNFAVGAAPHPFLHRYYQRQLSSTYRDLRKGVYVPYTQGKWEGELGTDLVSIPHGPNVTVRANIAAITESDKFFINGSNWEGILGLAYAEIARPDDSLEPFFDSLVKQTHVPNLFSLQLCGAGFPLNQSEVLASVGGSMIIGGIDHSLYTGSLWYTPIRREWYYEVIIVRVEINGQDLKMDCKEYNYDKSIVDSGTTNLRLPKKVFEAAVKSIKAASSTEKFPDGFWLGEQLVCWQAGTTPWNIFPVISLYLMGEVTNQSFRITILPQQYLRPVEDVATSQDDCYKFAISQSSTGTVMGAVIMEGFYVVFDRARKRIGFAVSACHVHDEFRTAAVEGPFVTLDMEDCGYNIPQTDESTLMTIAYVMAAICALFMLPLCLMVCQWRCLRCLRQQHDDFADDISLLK
Excerpt: (§1) In Vitro Enzymatic BACE1 and BACE2 FRET (Fluorescence Resonance Energy Transfer) Assays (Enzyme Assay Data in Table 1)

[2] = biological target: T1, BACE1; experiment: BACE1 cell assay; assay type: cell-based
Target sequence in this assay (P56817 46-501, species assumed): as the sequence (P56817 46-501) above

[3] = biological target: BACE2 (Homo sapiens (Human), UniProt Q9Y5Z0); experiment: In vitro enzymatic BACE2 FRET assay; assay type: biochemical; settings: read-out: IC50 IP (μM) BACE2 Enzyme
Excerpt: as §1

[4] = biological target: Cathepsin D (CatD) (Homo sapiens (Human), UniProt P07339); experiment: CatD assay; assay type: biochemical; settings: read-out: IC50 IP (μM) CatD
Cathepsin D (CatD), sequence (P07339 65-412, species assumed): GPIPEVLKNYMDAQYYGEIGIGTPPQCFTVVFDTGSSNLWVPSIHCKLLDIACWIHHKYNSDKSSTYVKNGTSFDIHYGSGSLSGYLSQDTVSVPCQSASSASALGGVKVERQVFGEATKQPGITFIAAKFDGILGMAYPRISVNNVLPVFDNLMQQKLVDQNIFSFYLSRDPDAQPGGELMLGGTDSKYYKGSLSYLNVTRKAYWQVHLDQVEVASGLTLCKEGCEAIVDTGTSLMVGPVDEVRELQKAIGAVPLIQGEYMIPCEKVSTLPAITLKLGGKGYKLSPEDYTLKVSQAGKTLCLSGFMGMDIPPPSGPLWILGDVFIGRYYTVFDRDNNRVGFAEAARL

[5] = read-out: IC50 IP (μM) BACE1 Cell

BACE2, sequence (Q9Y5Z0 63-518): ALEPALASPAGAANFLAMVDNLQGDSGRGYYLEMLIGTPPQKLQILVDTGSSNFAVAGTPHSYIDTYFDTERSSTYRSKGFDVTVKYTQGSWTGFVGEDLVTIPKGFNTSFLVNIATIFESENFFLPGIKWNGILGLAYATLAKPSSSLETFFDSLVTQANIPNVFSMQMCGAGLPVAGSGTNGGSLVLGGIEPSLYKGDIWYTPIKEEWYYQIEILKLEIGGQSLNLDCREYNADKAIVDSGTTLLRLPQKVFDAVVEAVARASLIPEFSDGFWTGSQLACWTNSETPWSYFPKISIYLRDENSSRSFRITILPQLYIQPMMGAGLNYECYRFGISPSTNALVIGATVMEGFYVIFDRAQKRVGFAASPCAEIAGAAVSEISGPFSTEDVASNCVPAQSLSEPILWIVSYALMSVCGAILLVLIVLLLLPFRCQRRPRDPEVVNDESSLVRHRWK

`C[C@]1(c2cc(/C=C(\F)c3ccc(C#N)cn3)ccc2F)N=C(N)S[C@@]2(C(=O)N3CCNC(=O)CC3)C[C@H]21` [Example 142, 6-((Z)-2-(3-((1S,5S,6S)-3-amino-5-methyl-1-(5-oxo-1,4-diazepane-1-carbonyl)-2-thia-4-azabicyclo[4.1.0]hept-3-en-5-yl)-4-fluorophenyl)-1-fluorovinyl)nicotinonitrile] gave an IC50 [1] of 0.00178 µM, an IC50 [2, 5] of 0.00219 µM and an IC50 [3] of 0.0173 µM. The IC50 [4] was 400 µM.

In the case of `CC1CCN(C(=O)[C@]23C[C@H]2[C@@](C)(c2cc(/C=C(\F)c4ccc(C#N)cn4)ccc2F)N=C(N)S3)CC1` [Example 147, 6-((Z)-2-(3-((1S,5S,6S)-3-amino-5-methyl-1-(4-methylpiperidine-1-carbonyl)-2-thia-4-azabicyclo[4.1.0]hept-3-en-5-yl)-4-fluorophenyl)-1-fluorovinyl)nicotinonitrile], the IC50 [1] is reported as 0.000793 µM, the IC50 [2, 5] is reported as 0.003 µM and the IC50 [3] is reported as 0.00486 µM. For the same compound, the IC50 [4] was 93.9 µM.

`CNC(=O)[C@]12C[C@H]1[C@@](C)(c1cc(/C=C(\F)c3cnc(OCC(C)=O)cn3)ccc1F)N=C(N)S2` [Example 152, (1S,5S,6S)-3-amino-5-(2-fluoro-5-((Z)-2-fluoro-2-(5-(2-oxopropoxy)pyrazin-2-yl)vinyl)phenyl)-N,5-dimethyl-2-thia-4-azabicyclo[4.1.0]hept-3-ene-1-carboxamide] showed an IC50 [1] of 0.052 µM, an IC50 [2, 5] of 0.0846 µM and an IC50 [3] of 1.51 µM. The IC50 [4] was 71.8 µM.

`CN(C)C(=O)[C@]12C[C@H]1[C@@](C)(c1cc(/C=C(\F)c3cnc(OCc4ncco4)cn3)ccc1F)N=C(N)S2` [Example 154, (1S,5S,6S)-3-amino-5-(2-fluoro-5-((Z)-2-fluoro-2-(5-(oxazol-2-ylmethoxy)pyrazin-2-yl)vinyl)phenyl)-N,N,5-trimethyl-2-thia-4-azabicyclo[4.1.0]hept-3-ene-1-carboxamide] showed an IC50 [1] of 0.00798 µM, an IC50 [2, 5] of 0.0049 µM and an IC50 [3] of 0.0455 µM. It also gave an IC50 [4] of 107 µM.

In the case of `CN(C)C(=O)[C@]12C[C@H]1[C@@](C)(c1cc(/C=C(\F)c3cnc(OCC#N)cn3)ccc1F)N=C(N)S2` [Example 158, (1S,5S,6S)-3-amino-5-(5-((Z)-2-(5-(cyanomethoxy)pyrazin-2-yl)-2-fluorovinyl)-2-fluorophenyl)-N,N,5-trimethyl-2-thia-4-azabicyclo[4.1.0]hept-3-ene-1-carboxamide], the IC50 [1] is reported as 0.116 µM, the IC50 [2, 5] is reported as 0.119 µM and the IC50 [3] is reported as 0.0927 µM. The IC50 [4] was 400 µM.

`CNC(=O)[C@]12C[C@H]1[C@@](C)(c1cc(/C=C(\F)c3cnc(Br)cn3)ccc1F)N=C(N)S2` [Example 163, (1S,5S,6S)-3-amino-5-(5-((Z)-2-(5-bromopyrazin-2-yl)-2-fluorovinyl)-2-fluorophenyl)-N,5-dimethyl-2-thia-4-azabicyclo[4.1.0]hept-3-ene-1-carboxamide] was tested, and the IC50 [1] was 0.0249 µM, the IC50 [2] was 0.291 µM and the IC50 [3] was 0.266 µM. The IC50 [4] was 69.7 µM.

In the case of `CC#Cc1cnc(/C(F)=C/c2ccc(F)c([C@@]3(C)N=C(N)S[C@@]4(C(=O)NC)C[C@H]43)c2)cn1` [Example 164, (1S,5S,6S)-3-amino-5-(2-fluoro-5-((Z)-2-fluoro-2-(5-(prop-1-yn-1-yl)pyrazin-2-yl)vinyl)phenyl)-N,5-dimethyl-2-thia-4-azabicyclo[4.1.0]hept-3-ene-1-carboxamide], the IC50 [1] is reported as 0.0125 µM, the IC50 [2] is reported as 0.0497 µM and the IC50 [3] is reported as 0.229 µM. It also gave an IC50 [4] of 156 µM.

For `CNC(=O)[C@]12C[C@H]1[C@@](C)(c1cc(/C=C(\F)c3cnc(C#CC4CC4)cn3)ccc1F)N=C(N)S2` [Example 165, (1S,5S,6S)-3-amino-5-(5-((Z)-2-(5-(cyclopropylethynyl)pyrazin-2-yl)-2-fluorovinyl)-2-fluorophenyl)-N,5-dimethyl-2-thia-4-azabicyclo[4.1.0]hept-3-ene-1-carboxamide], the IC50 [1] was 0.00707 µM, the IC50 [2, 5] was 0.121 µM and the IC50 [3] was 0.307 µM. It also gave an IC50 [4] of 538 µM.

`CNC(=O)[C@]12C[C@H]1[C@@](C)(c1cc(/C=C(\F)c3cnc(C#C[Si](C)(C)C)cn3)ccc1F)N=C(N)S2` [Example 166, (1S,5S,6S)-3-amino-5-(2-fluoro-5-((Z)-2-fluoro-2-(5-((trimethylsilyl)ethynyl)pyrazin-2-yl)vinyl)phenyl)-N,5-dimethyl-2-thia-4-azabicyclo[4.1.0]hept-3-ene-1-carboxamide] gave an IC50 [1] of 0.0171 µM, an IC50 [2, 5] of 0.185 µM and an IC50 [3] of 1.72 µM. For the same compound, the IC50 [4] was 146 µM.

Compound `CN(C)C(=O)[C@]12C[C@H]1[C@@](C)(c1cc(/C=C(\F)c3ccc(C#N)cc3)ccc1F)N=C(N)S2` [Example 168, (1S,5S,6S)-3-amino-5-(5-((Z)-2-(4-cyanophenyl)-2-fluorovinyl)-2-fluorophenyl)-N,N,5-trimethyl-2-thia-4-azabicyclo[4.1.0]hept-3-ene-1-carboxamide] has an IC50 [1] of 0.00496 µM, an IC50 [2, 5] of 0.0368 µM and an IC50 [3] of 0.104 µM. It also gave an IC50 [4] of 442 µM.

`CN(C)C(=O)[C@]12C[C@H]1[C@@](C)(c1cc(/C=C(\F)c3cnc(C#N)nc3)ccc1F)N=C(N)S2` [Example 173, (1S,5S,6S)-3-amino-5-(5-((Z)-2-(2-cyanopyrimidin-5-yl)-2-fluorovinyl)-2-fluorophenyl)-N,N,5-trimethyl-2-thia-4-azabicyclo[4.1.0]hept-3-ene-1-carboxamide] showed an IC50 [1] of 0.15 µM, an IC50 [2, 5] of 0.924 µM and an IC50 [3] of 0.3 µM. It also gave an IC50 [4] of 225 µM.

Work on `COC(=O)[C@]12C[C@H]1[C@@](C)(c1cc(/C=C(\F)c3ccc(Cl)cn3)cnc1F)N=C(N)S2` [Example 176, (1S,5S,6S)-methyl 3-amino-5-(5-((Z)-2-(5-chloropyridin-2-yl)-2-fluorovinyl)-2-fluoropyridin-3-yl)-5-methyl-2-thia-4-azabicyclo[4.1.0]hept-3-ene-1-carboxylate] yielded an IC50 [1] of 0.142 µM, an IC50 [2, 5] of 1.76 µM and an IC50 [3] of 0.214 µM. For the same compound, the IC50 [4] was over 400 µM.

In the case of `COC(=O)[C@]12C[C@H]1[C@@](C)(c1cc(/C=C(/F)c3ccc(Cl)cn3)cnc1F)N=C(N)S2` [Example 177, (1S,5S,6S)-methyl 3-amino-5-(5-((E)-2-(5-chloropyridin-2-yl)-2-fluorovinyl)-2-fluoropyridin-3-yl)-5-methyl-2-thia-4-azabicyclo[4.1.0]hept-3-ene-1-carboxylate], the IC50 [1] is reported as 0.291 µM, the IC50 [2, 5] is reported as 5.44 µM and the IC50 [3] is reported as 2.9 µM. The IC50 [4] was 527 µM.

Compound `C[C@]1(c2cc(/C=C(\F)c3ccc(C#N)cn3)cnc2F)N=C(N)S[C@@]2(C(=O)N3CC[C@@H](F)C3)C[C@H]21` [Example 181, 6-((Z)-2-(5-((1S,5S,6S)-3-amino-1-((R)-3-fluoropyrrolidine-1-carbonyl)-5-methyl-2-thia-4-azabicyclo[4.1.0]hept-3-en-5-yl)-6-fluoropyridin-3-yl)-1-fluorovinyl)nicotinonitrile] has an IC50 [1] of 0.0021 µM, an IC50 [2, 5] of 0.0073 µM and an IC50 [3] of 0.033 µM. For the same compound, the IC50 [4] was 653 µM.

`C[C@]1(c2cc(/C=C(\F)c3ccc(C#N)cn3)cnc2F)N=C(N)S[C@@]2(C(=O)N3CC[C@H](F)C3)C[C@H]21` [Example 182, 6-((Z)-2-(5-((1S,5S,6S)-3-amino-1-((S)-3-fluoropyrrolidine-1-carbonyl)-5-methyl-2-thia-4-azabicyclo[4.1.0]hept-3-en-5-yl)-6-fluoropyridin-3-yl)-1-fluorovinyl)nicotinonitrile] was tested, and the IC50 [1] was 0.0024 µM, the IC50 [2, 5] was 0.007 µM and the IC50 [3] was 0.045 µM. For the same compound, the IC50 [4] was 776 µM.

Source: patent US10246429B2, “Vinyl fluoride cyclopropyl fused thiazin-2-amine compounds as beta-secretase inhibitors and methods of use” (AMGEN INC., priority 2015, dated 2019)
